Where two headings read alike, the source gives them in different places.
Legend:
[1] = tested on: M. tuberculosis H37Rv-GFP; experiment: microbe, parasite or virus in culture; assay type: cell-based, Mycobacterium tuberculosis; conditions: Mycobacterium tuberculosis, H37RV, Macrophage
Raw264.7 cells [2] = conditions: mouse
Raw264.7 cells [3] = experiment: Cell number (CellNb) from image analysis of the phenotypic cell-based assay
[4] = confirmation, 20 uM, read-out: QIM Confirm % Inhibition 20 uM
[5] = primary screen, 20 μM, read-out: Primary QIM % Inhibition

Row | SMILES | inhibition at 20 µM [1, 4] [%] | inhibition at 20 µM [1, 5] [%] | Primary QIM CellNb (Raw264.7 cells [2]; 5 days, 20 μM) | Primary QIM CellNb (Raw264.7 cells [3]; primary screen, 20 μM) | other results
1 | C/C(=N\NC(=O)c1cccc(F)c1)c1ccc2ccccc2c1 [IPK 000 104 07] | 80.2 | 82.3 | 65.1 | 243.5 | 
2 | CN1CCN(NC(=O)c2ccc(COc3ccc(Cl)cc3Cl)o2)CC1 [IPK 000 123 92] | 15.4 | 45.3 | 32.3 | 135.8 | 
3 | NNC(=O)c1ccc(COc2ccc3c(c2)CCC3)o1 [IPK 000 123 30] | 64.1 | 77.2 | 72.5 | 296.8 | 
4 | CC(/C=N/NC(=O)c1ccncc1)c1ccccc1 (stereo not drawn) [IPK 000 105 20] | 96.4 | 97.1 | 103.8 | 316.5 | 
5 | Cc1ccc(C(=O)NC2CCCCCC2)cc1[N+](=O)[O-] [IPK 000 047 06] | 69.9 | 57.3 | 17.6 | 290.8 | 
6 | C/C(=N\NC(N)=S)c1ccccc1O [IPK 000 080 38] | 3.4 | 21 | 32.1 | 307.5 | 
7 | NNC(=O)c1ccc(COc2ccc(F)cc2)o1 [IPK 000 124 65] | 94.3 | 77.1 | 45.0 | 490.8 | QIM Confirm CellNb 0.2 uM (Raw264.7 cells [3]; confirmation, 0.2 uM): 267.0
8 | C=CCn1c(Cc2ccccc2)nc2c(cnn2-c2ccccc2)c1=O [IPK 000 073 11] | 56.1 | 49.1 | −10.5 | 147.8 | QIM Confirm CellNb 0.2 uM (Raw264.7 cells [2]; 5 days, 0.2 uM): 67.2
9 | Cc1ccc(NC(=O)c2ccc([N+](=O)[O-])cc2Cl)cc1Cl [IPK 000 047 16] | 85.1 | 69.4 | 77.9 | 280.5 | 
10 | O=S(=O)(Nc1nccs1)c1ccc(/N=C/c2ccccc2O)cc1 [IPK 000 079 88] | 28.1 | -69.2 | 7.5 | 181.8 | 
11 | O=C(N/N=C/c1cc(Br)cc([N+](=O)[O-])c1O)c1ccncc1 [IPK 000 080 81] | 99.5 | 94.7 | 104.9 | 363.3 | 
12 | CCCOC(=O)C1=C(C)NC2=C(C(=O)CC(c3ccccc3)C2)C1c1cccc(O)c1 (stereo not drawn) [IPK 000 085 99] | 49.5 | 37.1 | 4.5 | 67.3 | 
13 | CCCCc1ccc(C(=O)Nc2ccc(Br)cn2)cc1 [IPK 000 105 47] | 50.7 | 60.1 | 68.1 | 125.8 | 
14 | O=C(Nc1cccc(C(F)(F)F)c1)Nc1ccc(Cl)c(Cl)c1 [IPK 000 052 50] | 76.4 | 45 | 10.8 | 44.0 | 
15 | O=[N+]([O-])c1cc(/C=N/c2ccc(S(=O)(=O)NC3NC=CS3)cc2)c2c(c1)COCO2 (stereo not drawn) [IPK 000 057 92] | 27.2 | -30.7 | 23.0 | 165.3 | 
16 | C=C(N/N=C/c1cccc(C)n1)c1nn(Cc2ccc(Br)cc2)cc1Br [IPK 000 091 17] | 75.7 | 75.6 | 35.4 | 191.5 | 
17 | CC(NC(=O)c1cccc(Cl)c1)c1ccccc1 (stereo not drawn) [IPK 000 067 51] | 73.2 | 75.2 | 17.9 | 142.3 | 
18 | CCOc1ccc2ccccc2c1/C=N/NC(=O)c1ccncc1 [IPK 000 043 62] | 104 | 98.2 | 98.8 | 393.8 | 

Row | SMILES | inhibition at 20 µM [1, 4] [%] | inhibition at 20 µM [1, 5] [%] | Primary QIM CellNb (Raw264.7 cells [2]; 5 days, 20 μM) | Primary QIM CellNb (Raw264.7 cells [3]; primary screen, 20 μM) | other results
19 | CC/C(Cc1ccccc1)=N\NC(=O)c1ccncc1 [IPK 000 078 86] | 108 | 96.9 | 88.3 | 462.0 | 
20 | CC(=O)Oc1ccccc1C(=S)Nc1ccccc1 [IPK 000 042 77] | 48.9 | 105 | 7.7 | 367.0 | 
21 | Cc1cccn2c(=O)c(C=O)c(Nc3cccc(Cl)c3)nc12 [IPK 000 042 07] | 107 | 34.7 | 104.0 | 198.0 | 
22 | O=C(N/N=C/c1ccc(Cl)cc1Cl)c1ccncc1 [IPK 000 043 13] | 104 | 49.2 | 101.6 | 177.8 | 
23 | O=C(N/N=C/C=C/c1ccc([N+](=O)[O-])cc1)c1ccncc1 [IPK 000 043 30] | 102 | 107 | 100.8 | 305.0 | 
24 | CCN1C/C(=C\c2ccc3c(c2)OCO3)C(=O)/C(=C/c2ccc3c(c2)OCO3)C1 [IPK 000 102 52] | 68.1 | 70.4 | −7.0 | 179.8 | 
25 | Nc1nonc1NC(=O)CSc1cccc2ccccc12 [IPK 000 106 30] | 67.2 | 65.7 | 28.5 | 146.5 | 
26 | O=C(Nc1ccc(Cl)cc1[N+](=O)[O-])c1ccc([N+](=O)[O-])cc1Cl [IPK 000 049 00] |  |  |  |  | inhibition at 20 µM ([1]; read-out: Primary QIM % Inhibition): 32.1%; inhibition at 20 µM ([1]; read-out: QIM Confirm % Inhibition 20 uM): 74.2%; Primary QIM CellNb (Raw264.7 cells [2]): 72.2; Primary QIM CellNb (Raw264.7 cells [3]): 108.0
27 | COc1c(O)cc(/C=N/NC(=O)c2ccncc2)cc1Br [IPK 000 078 30] | 105 | 108 | 97.0 | 388.3 | 
28 | Oc1ccccc1/N=C/c1cc(Cl)cc(Cl)c1O [IPK 000 045 01] | 30.6 | -9.3 | 24.3 | 145.0 | 
29 | CC(NC(=O)c1ccc(C(C)(C)C)cc1)c1ccccc1 (stereo not drawn) [IPK 000 067 61] | 68.5 | 84.3 | 28.2 | 182.0 | 
30 | O=C(N/N=C\c1cc2c(s1)CCCCC2)c1ccncc1 [IPK 000 102 07] | 84.7 | 94.7 | 99.5 | 116.0 | QIM Confirm CellNb 20 uM (Raw264.7 cells [2]; 5 days, 20 uM): 79.6; QIM Confirm CellNb 20 uM (Raw264.7 cells [3]; confirmation, 20 uM): 124.8
31 | O=C(Nc1ccc(Cl)c(Cl)c1)c1ccc([N+](=O)[O-])cc1Cl [IPK 000 048 99] | 73.5 | 76.8 | 40.3 | 217.8 | 
32 | Cc1ccc(/C=N/NC(=O)c2ccncc2)cc1 [IPK 000 041 50] | 90.8 | 81.6 | 102.2 | 296.3 | 
33 | CCCCOc1ccc(/C=N/NC(=O)c2ccncc2)cc1 [IPK 000 043 06] | 98 | 81.4 | 98.1 | 200.3 | 
34 | COc1cc(/C=N/NC(=O)c2ccncc2)ccc1O [IPK 000 042 97] | 103 | 99.7 | 99.2 | 307.8 | 
35 | Cc1nn(C)cc1/C=N/NC(=O)c1ccncc1 [IPK 000 079 13] | 102 | 69.6 | 97.8 | 294.0 | 

— patent publication US8785452B2, “Anti-infective compounds” (priority 2008, dated 2014)
